According to patent US20250205181A1 (CZAP RESEARCH AND DEVELOPMENT, LLC, priority 2021, published 2025):

What was measured:
CB2 receptor = CB2 receptor (Mus musculus, UniProt P47936); details: literature value, Lin et al., J Med Chem 1998; cited from earlier work
[1] = Self-reported erectogenic effect / blood flow when tumescent in subject (Examples 1 and 2); format: in vivo, human; details: in conjunction with the 25 mg dosing of the anandamide CD formulation
Method: The subject had been taking various amounts of sildenafil for many years at 10-25 mg increments.
The subject of Example 1 determined that the combined use of these formulations permitted controlled dosing with bolus and/extended release regimens.

CB2 receptor, sequence (P47936 whole entry): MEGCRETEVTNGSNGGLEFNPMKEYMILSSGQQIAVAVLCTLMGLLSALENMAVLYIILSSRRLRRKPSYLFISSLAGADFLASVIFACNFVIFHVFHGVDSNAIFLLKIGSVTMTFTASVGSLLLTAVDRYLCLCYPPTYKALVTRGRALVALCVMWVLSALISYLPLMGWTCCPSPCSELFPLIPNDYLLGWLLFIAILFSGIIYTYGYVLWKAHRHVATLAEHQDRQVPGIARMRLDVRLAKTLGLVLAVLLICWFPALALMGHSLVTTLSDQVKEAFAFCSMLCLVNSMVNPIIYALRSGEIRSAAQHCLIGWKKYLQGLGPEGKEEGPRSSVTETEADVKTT

SMILES: CCCCC/C=C\C/C=C\C/C=C\C/C=C\CCCC(=O)NCCO [anandamide, (5Z,8Z,11Z,14Z)-N-(2-hydroxyethyl)icosa-5,8,11,14-tetraenamide]
- Ki (CB2 receptor): > 1 µM

SMILES: CCCc1nn(C)c2c(=O)[nH]c(-c3cc(S(=O)(=O)N4CCN(C)CC4)ccc3OCC)nc12 [sildenafil]
- effect of 10 mg sildenafil in conjunction with anandamide CD versus 25 mg sildenafil before anandamide CD supplementation [1]: more noticeable results
